The source of these data is US20240066051A1 (priority 2022, published 2024).

In assay [1] the target is SARS-CoV-2 S-protein RBD L452R + T478K (Severe acute respiratory syndrome coronavirus 2, UniProt P0DTC2, L452R/T478K). The class given is binding.
For assay [2], the target named is SARS-CoV-2 S-protein RBD E484Q (Severe acute respiratory syndrome coronavirus 2, UniProt P0DTC2, E484Q). In kind it is binding.
The target of assay [3] is SARS-CoV-2 S-protein RBD N501Y (Severe acute respiratory syndrome coronavirus 2, UniProt P0DTC2, N501Y). The class given is binding.
Assay [4] deals with SARS-CoV-2 S-protein RBD L452R (Severe acute respiratory syndrome coronavirus 2, UniProt P0DTC2, L452R). In kind it is binding.
Assay [5] concerns the target SARS-CoV-2 S-protein RBD T478K (Severe acute respiratory syndrome coronavirus 2, UniProt P0DTC2, T478K). The class given is binding.
The test system of assay [6] is SARS-CoV-2 pseudotyped viral particles (Delta variant). The class given is binding.
The test system of assay [7] is S-protein RBD mutants (VOC). In kind it is binding, SARS-CoV-2.
In assay [8] the target is S-protein RBD L452R+T478K mutant (Severe acute respiratory syndrome coronavirus 2, UniProt P0DTC2, L452R/T478K).
The subject of assay [9] is SARS-CoV-2 pseudotyped viral particles (Delta variant). The class given is cell-based.

heparin: the ka in assay [1] is reported as 2.3 × 10^4 1/MS; in assay [2], 5.2 × 10^4 1/MS; in assay [3] it was 1.7 × 10^4 1/MS; in assay [4], 161 1/MS; in assay [5], 1.2 × 10^4 1/MS. In addition, the kd in assay [1] is reported as 0.014 1/S; in assay [2] it was 0.011 1/S; in [3], 4.2 × 10^−4 1/S; in assay [4], 1.3 × 10^−3 1/S; in [5], 6.0 × 10^−3 1/S. For the same substance, the “affinity to heparin compared with the WT RBD” value in [3] is reported as “higher affinity”; in [4], “lower affinity”.
For mucopolysaccharide polysulfate [MPS], the “inhibition of pseudotyped viral particle binding to heparin surface compared with heparin control” value in assay [6] is “stronger inhibition”. For the same substance, the “inhibition of S-protein RBD mutant-heparin interaction compared with heparin” value in assay [7] was “stronger inhibition”; in [8], “comparable inhibition to heparin”. Also, the “IC50 for viral inhibition” value in assay [9] was determined as 0.28 µg/mL.
On to pentosan polysulfate [PPS], for which, in [6], the “inhibition of pseudotyped viral particle binding to heparin surface compared with heparin control” value is “stronger inhibition”. In addition, the “inhibition of S-protein RBD mutant-heparin interaction compared with heparin” value in assay [7] is “stronger inhibition”; in assay [8], “comparable inhibition to heparin”. Also, the “IC50 for viral inhibition” value in assay [9] came to 0.07 µg/mL.
